The text below walks through data of patent US7781443B2, “Tetrahydronaphthyridine derivatives and a process for preparing the same” (Mitsubishi Tanabe Pharma Corporation, priority 2004, dated 2010).

The structures appear in SMILES notation.

For this experiment, the target named is T1, CETP (Homo sapiens, UniProt P11597).
T1 construct: from tissue; host or cells: plasma from a healthy volunteer (diluted to 0.64%)
T1 sequence (P11597 18-493): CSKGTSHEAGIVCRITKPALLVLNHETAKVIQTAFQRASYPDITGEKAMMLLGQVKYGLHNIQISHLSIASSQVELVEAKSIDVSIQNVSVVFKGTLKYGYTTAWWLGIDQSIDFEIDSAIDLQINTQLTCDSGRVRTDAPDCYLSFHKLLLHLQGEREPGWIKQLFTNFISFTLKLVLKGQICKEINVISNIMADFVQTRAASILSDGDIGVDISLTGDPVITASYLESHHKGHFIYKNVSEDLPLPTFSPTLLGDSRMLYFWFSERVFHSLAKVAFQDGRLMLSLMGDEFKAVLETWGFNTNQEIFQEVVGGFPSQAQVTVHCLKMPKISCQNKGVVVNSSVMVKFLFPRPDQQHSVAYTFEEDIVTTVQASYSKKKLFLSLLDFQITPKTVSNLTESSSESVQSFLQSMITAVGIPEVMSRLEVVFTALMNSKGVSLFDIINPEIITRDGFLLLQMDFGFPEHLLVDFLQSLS
Kind of experiment: Inhibitory activity against CETP in vitro (fluorescent BODIPY-CE transfer from donor to acceptor microemulsion in diluted human plasma). It is filed as biochemical. The following applies: plasma from a healthy volunteer diluted to 0.64%; preincubation with test solution 37° C. 24 hours; incubation with donor/acceptor microemulsion 37° C. 3 hours; fluorescence Ex.550 nm/Em.600 nm. The method, then:
The inhibitory activity of the compounds of the present invention against CETP was tested in this experiment.
A solution of 1-Palmitoyl-2-oleoyl-sn-glycero-3-phosphocholine (3.5 mg), cholesteryl oleate (3 mg) and triolein (0.7 mg) in chloroform was mixed and lipid was air-dried under nitrogen gas to remove solvent. Dioxane (0.25 ml) was then added and the mixture was stirred for dissolution. The resultant lipid solution (0.2 ml) was slowly injected under the surface of Tris-saline-EDTA(TSE) buffer solution [10 mM Tris/HCl (pH 7.4), 0.15 M NaCl, 2 mM EDTA] (10 ml) with Hamilton syringe, while sonicating in ice-bath. After 1-hour-sonication in ice-bath, the solution was stored at 4° C.
A solution of egg PC (phosphatidylcholine) (0.33 mg) and BODIPY-CE (0.62 mg) in chloroform was mixed. After removing solvent by air-drying lipid under nitrogen gas, TSE buffer solution (3 ml) was added and the solution was sonicated in ice-bath. This solution was filtered to sterilize through 0.22 μm filter and stored at 4° C.
A test solution was prepared using dimethyl sulfoxide as a solvent. Plasma from a healthy volunteer was diluted to 0.64% with TSE buffer, and to the resultant plasma solution (187 μl) was added a test solution (3 μl) or the solvent alone followed by incubation at 37° C. for 24 hours. After addition of TSE buffer solution (10 μl) containing 5% donor microemulsion and 5% acceptor microemulsion, the mixture was incubated at 37° C. for 3 hours. Before and after the incubation, the fluorescence intensity was measured at Ex.550 nm/Em.600 nm. CETP activity was defined as the difference between the measurements obtained before incubation and after incubation. The decreasing rate of the difference in the sample was defined as the inhibition rate of CETP activity. IC50 for each sample was calculated from the inhibition rate of CETP activity.

What is called IC50 is the concentration that gives 50% inhibition. High values mean weaker potency in that assay, low ones greater potency in that assay. On to `CCOC(=O)N1c2ccc(OC)nc2[C@@H](N(Cc2cc(C(F)(F)F)cc(C(F)(F)F)c2)c2ncc(N3CCOCC3)cn2)C[C@H]1CC` [Example 22], for which the IC50 was 0.39 nM.
For `CCOC(=O)N1c2ccc(OC)nc2[C@@H](N(Cc2cc(C(F)(F)F)cc(C(F)(F)F)c2)c2ncc(OCCS(C)(=O)=O)cn2)C[C@H]1CC` [Example 116] the value was 0.11 nM; for `CCOC(=O)N1c2ccc(OC)nc2[C@@H](N(Cc2cc(C(F)(F)F)cc(C(F)(F)F)c2)c2ncc(OCCC(=O)O)cn2)C[C@H]1CC` [Example 269, (2R,4S)-4-{[3,5-bis(trifluoromethyl)benzyl]-[5-(2-carboxyethoxy)pyrimidin-2-yl]}amino-2-ethyl-6-methoxy-3,4-dihydro-2H-[1,5]naphthyridine-1-carboxylic acid ethyl ester], 1.9 nM; for `CCOC(=O)N1c2ccc(N(C)C)nc2[C@@H](N(Cc2cc(C(F)(F)F)cc(C(F)(F)F)c2)c2ncc(N3CCN(C(C)=O)CC3)cn2)C[C@H]1CC` [Example 337, (2R,4S)-4-{[5-(4-acetylpiperazin-1-yl)pyrimidin-2-yl]-[3,5-bis(trifluoromethyl)-benzyl]}amino-6-dimethylamino-2-ethyl-3,4-dihydro-2H-[1,5]naphthyridine-1-carboxylic acid ethyl ester], 0.4 nM.
`CCC1CC(N(Cc2cc(C(F)(F)F)cc(C(F)(F)F)c2)c2ncc(CCC(=O)O)cn2)c2nc(OC)ccc2N1C(=O)OCC(F)(F)F` (stereo not shown) [Example 356]: the 50% inhibitory concentration (IC50) was 0.98 nM.
`CCOC(=O)N1c2ccc(OC)nc2[C@@H](N(Cc2cc(C(F)(F)F)cc(C(F)(F)F)c2)c2ccc(N3CCC(C(=O)O)CC3)cn2)C[C@H]1CC` [Example 383]: the half-inhibitory concentration (IC50) was 4.6 nM.
For `CC[C@@H]1C[C@H](N(Cc2cc(C(F)(F)F)cc(C(F)(F)F)c2)c2ncc(N3CCOCC3)cn2)c2nc(OC)ccc2N1C(=O)OCC(C)(C)C(=O)O` [Example 409], the IC50 stood at 0.83 nM.
